Data on four compounds can be found in paper PMC7069944, “Amino acid levels determine metabolism and CYP450 function of hepatocytes and hepatoma cell lines” (Nature Communications, 2020).

Values joined by “and” are separate entries in the source; they are usually repeats but may differ in a detail not shown here. Identical values can stand only once.

One data set has as its system HepG2. Kind of data set: Repeated-exposure DILI training compounds, resazurin conversion, HepG2. Particulars: for % resazurin conversion: repeat exposure; for resazurin conversion (Supplementary Figure 7D): replicates. The protocol:
(§1) To evaluate the ability to predict hepatotoxicity, we adapted the differentiation assays to a 384-well format. […] As a readout, we evaluated cell viability by resazurin conversion and correlated the results to therapeutic doses (Cmax values).
(§2) PSCs were differentiated in a 384-well format. […] As a negative control, 41 wells were left untreated. HepG2 were seeded at 40,000 cells per well. […] Cells were fixed with 4% PFA. […] Drugs were administrated after 8 h of attachment.
(Alamar Blue is a resazurin reagent that responds to reducing activity.)

For a further data set, the system named is HLC. The experiment in a line: Repeated-exposure DILI training compounds, resazurin conversion, HLC. Particulars: repeat exposure. How it is done:
as §1, §2

The test system of a further data set is HC6X. The experiment in a line: Repeated-exposure DILI training compounds, resazurin conversion, HC6X. Particulars: for % resazurin conversion: repeat exposure; for resazurin conversion (Supplementary Figure 7D): replicates. The protocol:
as §1, §2

A further data set relates to HC3X. The experiment in a line: Repeated-exposure DILI training compounds, resazurin conversion, HC3X. The following applies: for IC50/Cmax: human; for resazurin conversion (Supplementary Figure 7D): HC3X AAGLY D40, replicates. The protocol: as §1, §2
The mark [1] stands for this setting: HC6X AAGLY D40 Remove dox, 100 uM.

As for `O=C1CC2(CCCC2)CC(=O)N1CCCCN1CCN(c2ncccn2)CC1` [Buspiron], the “% resazurin conversion” value with HepG2 (HepG2 AAGLY D30, 3 uM) is 82.9% and 82.6% and 85.2% and 70.1% and 73.2%; in the data set on HepG2 (HepG2 AAGLY D30, 5 uM), 75.8% and 88.2% and 72.9% and 66.2% and 79.4% and 72.2%; in the data set with HepG2 (HepG2 AAGLY D30, 10 uM), 70.9% and 76.8% and 83.7% and 64.5% and 73.5% and 76.4%; with HepG2 (HepG2 AAGLY D30, 30 uM), 83.2% and 92.9% and 78.7% and 72.3% and 78.9% and 76.5%; in the data set on HepG2 (HepG2 AAGLY D30, 50 uM), 80.3% and 98.3% and 89.9% and 83.3% and 93.4% and 81.9%; with HepG2 (HepG2 AAGLY D30, 100 uM), 88.3% and 87.7% and 85.2% and 77.2% and 94.7% and 81.8%. In addition, the “% resazurin conversion” value was 47.4% and 86.8% and 88.6% and 79.7% and 88.3% and 80.1% in the data set on HepG2 (HepG2 AAGLY D30, 300 uM); 76.5% and 91.9% and 75.1% and 71.1% and 78% and 76.7% in the data set with HepG2 (HepG2 AAGLY D30, 600 uM); 38% and 34.1% and 34.5% and 34.6% and 35.7% in the data set on HepG2 (HepG2 AAGLY D30, 1200 uM); 92.8% with HepG2 (HepG2 CTL D7, 3 uM); 96.4% and 97.6% and 106.5% and 96.6% and 98% and 90.2% with HepG2 (HepG2 CTL D7, 5 uM); 94.3% and 94.1% and 99.5% and 93.5% and 98.4% and 95.6% with HepG2 (HepG2 CTL D7, 10 uM). Further, the “% resazurin conversion” value with HepG2 (HepG2 CTL D7, 30 uM) was 82.7% and 84.2% and 92.3% and 83% and 85.3% and 78.8%; in the data set with HepG2 (HepG2 CTL D7, 50 uM), 72.7% and 67.2% and 78.7% and 68.5% and 76.7% and 71.9%; in the data set with HepG2 (HepG2 CTL D7, 100 uM), 67.5% and 61.8% and 72.7% and 60.8% and 71.2% and 63.1%; with HepG2 (HepG2 CTL D7, 300 uM), 61.1% and 51.9% and 57.2% and 57% and 59.1% and 57.6%; in the data set with HepG2 (HepG2 CTL D7, 600 uM), 38.6% and 29% and 35.3% and 36.3% and 35.1% and 38.2%; with HepG2 (HepG2 CTL D7, 1200 uM) it was 7% and 6.5% and 7.1% and 6.8% and 6.6%. Moreover, the “% resazurin conversion” value was 67.7% and 92.7% and 64.2% and 84.3% and 47.9% and 66.7% in the data set with HLC (HLC AAGLY D40, 5 uM); 85.8% and 64.9% and 92.1% and 82% and 66.1% and 66.8% in the data set with HLC (HLC AAGLY D40, 10 uM); 116.3% and 73.9% and 114.6% and 80.9% and 111.6% and 83.2% with HLC (HLC AAGLY D40, 30 uM); 33.4% and 36.6% and 61.5% and 38.3% and 40.4% and 34.1% in the data set with HLC (HLC AAGLY D40, 600 uM); 36.8% and 25.4% and 26.6% and 31.3% and 28.1% and 38% with HLC (HLC AAGLY D40, 1200 uM); 103.9% and 103.1% and 108.1% and 79.4% and 66.2% and 77.5% with HLC (HLC LDM D40, 3 uM). The “% resazurin conversion” value in the data set with HLC (HLC LDM D40, 5 uM) is 89.3% and 69.5% and 87.6% and 70.2% and 108.2%; in the data set with HLC (HLC LDM D40, 10 uM) it was 86.6% and 87.3% and 101% and 83.8% and 104.7% and 105%; in the data set on HLC (HLC LDM D40, 30 uM) it was 71.9% and 90.1% and 102.1% and 75.5% and 80.5% and 81.4%; in the data set with HLC (HLC LDM D40, 50 uM), 56.1% and 105.8% and 92.3% and 104% and 79.6%; in the data set with HLC (HLC LDM D40, 100 uM) it was 84.7% and 120.8% and 121.2% and 77.9% and 92% and 91.2%; in the data set on HC6X (HC6X AAGLY D40, 3 uM), 109.5% and 96.9% and 120.8% and 98% and 87.5% and 117.9%. Also, the “% resazurin conversion” value is 83.7% and 97.5% and 104.1% and 109.8% and 83.3% and 99.7% with HC6X (HC6X AAGLY D40, 5 uM); 85.5% and 135.9% and 111.1% and 117.5% and 91.9% and 102.2% in the data set with HC6X (HC6X AAGLY D40, 10 uM); 114% and 167.8% and 149.8% and 117.8% and 94% and 164.1% in the data set with HC6X (HC6X AAGLY D40, 30 uM); 112.9% and 116.6% and 111.2% and 167.3% and 107.2% and 107.3% in the data set with HC6X (HC6X AAGLY D40, 50 uM); 109.2% and 112.4% and 163.5% and 127.2% and 106% and 162.8% in the data set with HC6X (HC6X AAGLY D40, 100 uM); 140.3% and 103.5% and 121.9% and 115.9% and 101.2% and 155.2% in the data set on HC6X (HC6X AAGLY D40, 300 uM). Also, the “% resazurin conversion” value in the data set on HC6X (HC6X AAGLY D40, 600 uM) was 143.6% and 91% and 112.3% and 121.3% and 99.3% and 149.8%; with HC6X (HC6X AAGLY D40, 1200 uM) it was 56.9% and 60.8% and 76.3% and 66.9% and 59.2%; in the data set on HC6X (HC6X AAGLY D40 Remove dox, 3 uM) it was 93.4% and 152.6% and 130.2% and 156.1% and 101.5% and 127.1%; with HC6X (HC6X AAGLY D40 Remove dox, 10 uM), 169.9% and 114.9% and 169.4% and 120.1% and 97.5% and 96%; in the data set on HC6X (setting [1]), 158.4% and 106.8% and 179.1% and 111.4% and 123.7% and 132%.
Compound `O=C1CC2(CCCC2)CC(=O)N1CCCCN1CCN(c2ncccn2)CC1` [Buspirone] had an IC50/Cmax in the data set on HC3X of 120200.
Turning to `CCc1ccc(CCOc2ccc(CC3SC(=O)NC3=O)cc2)nc1` (stereo not shown) [Proglitazone], the “resazurin conversion (Supplementary Figure 7D)” value with HepG2 (HepG2 AAGLY D30, 30 uM) was 76.5 (2×) and 98.3 and 82.8 and 103.2 and 80.9; in the data set on HepG2 (HepG2 AAGLY D30, 50 uM), 86.1 and 109.6 and 86.4 and 100 and 77.1 and 92.9; with HepG2 (HepG2 AAGLY D30, 100 uM) it was 85.4 and 96.2 and 90.6 and 100.7 and 78.9 and 86.6; with HepG2 (HepG2 AAGLY D30, 300 uM) it was 105.7 and 117.9 and 106.2 and 102.2; with HepG2 (HepG2 AAGLY D30, 600 uM) it was 91.8 and 99.3 and 126.4 and 102.6 and 116.8; in the data set with HepG2 (HepG2 AAGLY D30, 1200 uM), 95.2 and 102.5 and 118.4 and 129.4 and 110.4 and 135.6. The “resazurin conversion (Supplementary Figure 7D)” value was 120.4 and 118.8 and 101.6 and 104 and 100.1 in the data set on HepG2 (HepG2 CTL D7, 30 uM); 129.5 and 93.8 and 100.8 and 96.7 and 101.2 and 122.3 in the data set with HepG2 (HepG2 CTL D7, 50 uM); 125.4 and 88.5 and 98 and 96 (2×) and 110.7 in the data set on HepG2 (HepG2 CTL D7, 100 uM); 117.2 and 87 and 94.6 (2×) and 95.5 and 111.8 in the data set on HepG2 (HepG2 CTL D7, 300 uM); 86.3 and 70.3 and 76.6 and 75.3 and 70.1 and 87.4 in the data set on HepG2 (HepG2 CTL D7, 600 uM); 57 and 33 and 42.5 and 44.8 and 41.7 and 59 in the data set with HepG2 (HepG2 CTL D7, 1200 uM). In addition, the “resazurin conversion (Supplementary Figure 7D)” value in the data set with HC3X (30 uM) is 121 and 98.9 and 91.2 and 87.5 and 101; with HC3X (50 uM), 105.9 and 84.2 and 118.5 and 71.8 and 81.4 and 110; with HC3X (100 uM) it was 120.6 and 83.7 and 95.6 and 119.3 and 129.6; in the data set with HC3X (300 uM), 107.4 and 124.1 and 139.3 and 91.4 and 117.3 and 157.9; in the data set with HC3X (600 uM), 74.1 and 108.7 and 93.3 and 116.1 and 116 and 105.8; in the data set with HC3X (1200 uM) it was 119 and 156.2 and 148 and 139.2 and 120.5. Moreover, the “resazurin conversion (Supplementary Figure 7D)” value in the data set on HC6X (HC6X AAGLY D40, 30 uM) is 134.4 and 112 and 79.3 and 107.2 and 76.2 and 91.4; in the data set with HC6X (HC6X AAGLY D40, 50 uM) it was 137 and 83.7 and 59.1 and 75.7 and 149.3 and 136.5; with HC6X (HC6X AAGLY D40, 100 uM) it was 100.9 and 141.3 and 83.6 and 90.9 and 69.2 and 155.3; with HC6X (HC6X AAGLY D40, 300 uM), 125.9 and 124.5 and 135.2 and 127.1 and 125.2 and 153.4; in the data set with HC6X (HC6X AAGLY D40, 600 uM), 91.5 and 88.8 and 88.2 and 125.7 and 101 and 136.6; in the data set on HC6X (HC6X AAGLY D40, 1200 uM), 94.8 and 131 and 95.9 and 103.6 and 97.2 and 136.5. The “resazurin conversion (Supplementary Figure 7D)” value in the data set on HC6X (HC6X AAGLY D40 Remove dox, 30 uM) is 121 and 98.9 and 91.2 and 87.5 and 101; in the data set on HC6X (HC6X AAGLY D40 Remove dox, 50 uM), 105.9 and 84.2 and 118.5 and 71.8 and 81.4 and 110; with HC6X (setting [1]), 120.6 and 83.7 and 95.6 and 119.3 and 129.6; in the data set with HC6X (HC6X AAGLY D40 Remove dox, 300 uM) it was 107.4 and 124.1 and 139.3 and 91.4 and 117.3 and 157.9; in the data set on HC6X (HC6X AAGLY D40 Remove dox, 600 uM) it was 74.1 and 108.7 and 93.3 and 116.1 and 116 and 105.8; with HC6X (HC6X AAGLY D40 Remove dox, 1200 uM), 119 and 156.2 and 148 and 139.2 and 120.5.
Consider `C1CCC(C(CC2CCCCN2)C2CCCCC2)CC1` (stereo not shown) [perhexiline], for which the IC50/Cmax in the data set with HC3X came out at 0.58.
